The values that follow come from patent US5869492A, “Condensed thiazole derivatives, having 5-HT receptor affinity” (priority 1995, dated 1999).

In experiment [1] the target is T1, 5-HT1A receptors (Rattus norvegicus, UniProt P19327).
T1 construct: Hippocampal tissue from the brains of male Sprague-Dawley rats; from tissue; host or cells: hippocampal membranes of male Sprague-Dawley rats (Charles River)
T1 sequence (P19327 1-422): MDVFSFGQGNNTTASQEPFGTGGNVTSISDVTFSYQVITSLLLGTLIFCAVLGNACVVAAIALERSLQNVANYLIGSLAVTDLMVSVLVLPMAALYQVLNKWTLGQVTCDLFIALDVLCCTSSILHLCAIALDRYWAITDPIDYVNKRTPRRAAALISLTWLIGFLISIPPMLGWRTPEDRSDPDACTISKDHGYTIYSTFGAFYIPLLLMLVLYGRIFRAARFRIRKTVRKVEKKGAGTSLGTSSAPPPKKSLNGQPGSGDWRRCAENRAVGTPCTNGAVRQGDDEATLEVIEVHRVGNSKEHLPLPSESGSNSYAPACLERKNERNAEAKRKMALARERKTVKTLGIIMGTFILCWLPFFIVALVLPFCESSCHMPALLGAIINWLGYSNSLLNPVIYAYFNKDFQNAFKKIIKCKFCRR
Briefly: [3H]8-OH-DPAT binding to 5-HT1A receptors in rat hippocampal membranes. Conditions: for Ki: [3H]8-OH-DPAT 2 nM, rat hippocampal membranes, mean of three determinations unless marked.
Method: Hippocampal tissue from the brains of male Sprague-Dawley rats (Charles River; weight range 150-250 g) was homogenised in ice-cold 50 mM Tris-HCl buffer (pH 7.7 when measured at 25° C., 1:40 w/v) and centrifuged at 30,000 g at 4° C. for 10 minutes. The pellet was rehomogenised in the same buffer, incubated at 37° C. for 10 minutes and centrifuged at 30,000 g at 4° C. for 10 minutes. The final pellet was resuspended in 50 mM Tris-HCI buffer (pH 7.7) containing 4 mM CaCl2, 0.1% L-ascorbic acid and 10 μM pargyline hydrochloride (equivalent to 6.25 mg wet weight of tissue/ml) and used immediately in the binding assay.
Aliquots (400 μl; equivalent to 2.5 mg wet weight of tissue/tube) of this membrane preparation were added to tubes containing [^3 H]8-hydroxy-2-(dipropylamino)tetralin ([^3 H]8-OH-DPAT; 50 μl; 2 nM) and distilled water (50 μl; total binding) or 5-HT (50 μl; 10 μM; non-specific binding) or test compound (50 μl; at a single concentration of 10^-6 M or at 10 concentrations ranging from 10^-11 -10^-3 M) and incubated at 25° C. for 30 minutes. The incubation was terminated by rapid filtration under vacuum through Skatron 11734 filters using a Skatron Cell Harvester. Filters were washed with ice-cold 50 mM Tris-HCl buffer, pH 7.7 (at 25° C., wash setting 9,9,0) and dried. The scored filter paper discs were punched out into vials, scintillation fluid added and radioactivity determined by liquid scintillation counting.
The percentage displacement of specific binding of the tritiated ligand was calculated for the single concentration (10^-6 M) of test compound. Displacement curves were then produced for those compounds which displaced ≥50% of specific binding of the tritiated ligand at 10^-6 M using a range of concentrations of the compound. The concentration which gave 50% inhibition of specific binding (IC50) was obtained from the curve. The inhibition coefficient Ki was then calculated using the formula [formula] in which [ligand] is the concentration of the tritiated ligand used and KD is the equilibrium dissociation constant for the ligand.

In experiment [2] the target is T2, 5-hydroxytryptamine (5-HT) reuptake sites (Rattus norvegicus, UniProt P31652).
T2 construct: Frontal cortical tissue from the brains of male Sprague-Dawley rats; from tissue; host or cells: crude frontal cortical synaptosomes of male Sprague-Dawley rats (Charles River)
In words: [3H]5-HT uptake into rat frontal cortical synaptosomes. Format: biochemical. The protocol: Frontal cortical tissue from the brains of male Sprague-Dawley rats (Charles River; weight range 150-250 g) was homogenised in ice-cold 0.32M sucrose (1:10 w/v) using a motor driven teflon pestle (difference in diameter between mortar and pestle 0.5 mm). Nuclei and cell debris were removed by centrifugation at 1,500 g at 4° C. for 10 minutes. The pellet (P1) was discarded and the supernatant centrifuged at 30,000 g at 4° C. for 10 minutes. The crude synaptosomal pellet (P2) was resuspended in Krebs-Henseleit buffer (equivalent to 8.3 mg wet weight of tissue/ml).
Crude synaptosomes were incubated in a shaking water bath at 37° C. for 15 minutes. Aliquots (150 μl; equivalent to 1.25 mg wet weight of tissue/tube) were then added to tubes containing 275 μl of Krebs-Henseleit buffer and 50 μl of Krebs-Henseleit buffer (total uptake) or 50 μl of test compound (at a single concentration of 10^-6 M or at 10 concentrations ranging from 10^-11 -10^-3 M) or 50 μl of zimeldine (10^-5 M; non-specific uptake). Uptake was initiated by the addition of 25 μl of freshly prepared [^3 H]5-HT (2 nM), followed by vortexing, and was continued for 5 minutes at 37° C. in the shaking water bath. Uptake was terminated by filtration under vacuum through Skatron 11734 filters using a Skatron cell harvester. Filters were then washed with 8 ml ice-cold saline. The scored filter paper discs were punched into vials, scintillation fluid added and radioactivity determined by liquid scintillation counting.
For both the 5-HT uptake and noradrenaline uptake tests, the percentage inhibition of specific uptake of the tritiated ligand was calculated for the single concentration (10^-6 M) of test compound. Inhibition curves were then produced for those compounds which inhibited ≥50% of specific uptake of the tritiated ligand at 10 ^-6 M using a range of concentrations of test compound. The concentration which gave 50% inhibition of specific uptake (IC50) was obtained from the curve. The inhibition constant (Ki) was then calculated using the formula [formula] in which [ligand] is the concentration of tritiated ligand used and Km is the affinity of the uptake site for the ligand.

Experiment [3] addresses T3, noradrenaline reuptake sites (Rattus norvegicus, UniProt Q63380).
T3 construct: Frontal cortical tissue from the brains of male Sprague-Dawley rats; from tissue; host or cells: crude frontal cortical synaptosomes of male Sprague-Dawley rats (Charles River)
In words: [3H]noradrenaline uptake into rat frontal cortical synaptosomes. It is filed as biochemical. The following applies: [3H]noradrenaline 10 nM, mean of three determinations unless marked (** one), read-out: NA uptake Ki.
Method: Frontal cortical tissue from the brains of male Sprague-Dawley rats (Charles River; weight range 150-250 g) was homogenised in ice-cold 0.32M sucrose (1:10 w/v) using a motor driven teflon pestle (difference in diameter between mortar and pestle 0.5 mm). Nuclei and cell debris were removed by centrifugation at 1,500 g at 4° C. for 10 minutes. The pellet (P1) was discarded and the supernatant centrifuged at 30,000 g at 4° C. for 10 minutes. The crude synaptosomal pellet (P2) was resuspended in Krebs-Physiological buffer (equivalent to 16.7 mg wet weight of tissue/ml).
Crude synaptosomes were incubated in a shaking water bath at 37° C. for 15 minutes. Aliquots (150 μl; equivalent to 2.5 mg wet weight of tissue/tube) were then added to tubes containing 275 μl of Krebs-Physiological buffer and 50 μl of Krebs-Physiological buffer (total uptake) or 50 μl of test compound (at a single concentration of 10^-6 M or 10 concentrations ranging from 10^-11 -10^-3 M) or 50 μl of desipramine (10^-5 M; non-specific uptake). Uptake was initiated by the addition of 25 μl of freshly prepared [^3 H]noradrenaline (10 nM), followed by vortexing and was continued for 5 minutes at 37° C. in the shaking water bath. Uptake was terminated by filtration under vacuum through Whatman GF/B filters using a Brandell cell harvester. Filters were then washed with 8 ml ice-cold saline. The scored filter paper discs were placed into vials, scintillation fluid added and radioactivity determined by liquid scintillation counting.

Where [4] appears, read: [3H]5-HT 2 nM, rat frontal cortical synaptosomes, mean of three determinations unless marked (* two), read-out: 5-HT uptake Ki.

Where a name gives a salt, the structure may show the parent alone. Read-outs that look alike come from different tables or passages of the source.

T3 sequence (Q63380 1-617): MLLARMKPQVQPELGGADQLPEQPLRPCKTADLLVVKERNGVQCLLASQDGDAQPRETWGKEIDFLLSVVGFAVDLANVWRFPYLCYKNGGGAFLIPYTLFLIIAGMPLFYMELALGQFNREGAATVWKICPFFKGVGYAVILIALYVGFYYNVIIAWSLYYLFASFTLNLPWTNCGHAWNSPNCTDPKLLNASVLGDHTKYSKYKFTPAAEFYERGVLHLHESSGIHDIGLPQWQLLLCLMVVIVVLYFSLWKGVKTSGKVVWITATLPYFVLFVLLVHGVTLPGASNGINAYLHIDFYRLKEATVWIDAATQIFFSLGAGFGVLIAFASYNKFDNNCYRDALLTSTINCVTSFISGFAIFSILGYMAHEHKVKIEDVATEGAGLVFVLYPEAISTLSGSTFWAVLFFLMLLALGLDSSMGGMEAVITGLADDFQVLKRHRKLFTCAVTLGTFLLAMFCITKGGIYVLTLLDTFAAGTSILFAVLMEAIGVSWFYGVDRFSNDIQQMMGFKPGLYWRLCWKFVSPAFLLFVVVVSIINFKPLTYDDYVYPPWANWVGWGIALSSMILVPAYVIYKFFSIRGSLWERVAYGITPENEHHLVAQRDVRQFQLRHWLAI
T2 sequence (P31652 whole entry): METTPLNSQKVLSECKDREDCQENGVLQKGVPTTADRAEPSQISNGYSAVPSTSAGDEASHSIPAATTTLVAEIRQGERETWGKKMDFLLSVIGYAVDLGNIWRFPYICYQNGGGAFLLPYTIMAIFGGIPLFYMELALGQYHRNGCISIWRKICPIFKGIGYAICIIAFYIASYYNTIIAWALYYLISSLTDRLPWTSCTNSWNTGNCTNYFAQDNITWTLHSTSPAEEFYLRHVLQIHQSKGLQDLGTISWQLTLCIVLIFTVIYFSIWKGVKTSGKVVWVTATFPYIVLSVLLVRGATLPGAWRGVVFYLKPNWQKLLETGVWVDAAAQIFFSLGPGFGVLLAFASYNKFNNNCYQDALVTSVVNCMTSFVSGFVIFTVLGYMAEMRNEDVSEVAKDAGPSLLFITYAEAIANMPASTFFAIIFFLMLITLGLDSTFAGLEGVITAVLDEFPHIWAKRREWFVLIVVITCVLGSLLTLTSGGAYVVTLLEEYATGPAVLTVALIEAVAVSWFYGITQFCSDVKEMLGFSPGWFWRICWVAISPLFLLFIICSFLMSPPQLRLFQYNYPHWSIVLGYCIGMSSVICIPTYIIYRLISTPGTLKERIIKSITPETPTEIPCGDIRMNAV

As for `C1=C(c2csc3ccccc23)N2CCN=C2S1` [Example 1, 3-(benzo[b]thiophen-3-yl)-5,6-dihydroimidazo[2,1-b]thiazole monohydrobromide dihydrate], the Ki amounted to 0.081 µM in experiment [1], 0.0127 µM in experiment [2] and 0.0028 µM in experiment [3].
For `C1=C(c2csc3ccccc23)N2CCCN=C2S1` [Example 2, 3-(benzo[b]thiophen-3-yl)-6,7-dihydro-5H-thiazolo[3,2-2a]pyrimidine], the Ki in experiment [1] stood at 0.34 µM; in experiment [2] (setting [4]) it was 0.305 µM; in experiment [3], 0.04 µM.
In the case of `C1=C(c2coc3ccccc23)N2CCN=C2S1` [Example 3, 3-(benzo[b]furan-3-yl)-5,6-dihydroimidazo[2,1-b]thiazole monohydrobromide monohydrate], the inhibition constant Ki in experiment [1] is 0.118 µM; in experiment [2], 0.084 µM; in experiment [3], 0.041 µM.
Take `C1=C(c2coc3ccccc23)N2CCCN=C2S1` [Example 4, 3-(benzo[b]furan-3-yl)-6,7-dihydro-5H-thiazolo[3,2-a]pyrimidine]: the figures for the inhibitory constant (Ki) in experiment [1], in experiment [2] (setting [4]) and in experiment [3] were 0.321 µM, 0.881 µM and 0.116 µM, respectively.
In the case of `Clc1ccc2scc(C3=CSC4=NCCN34)c2c1` [Example 5, 3-(5-chlorobenzo[b]thiophen-3-yl)-5,6-dihydroimidazo[2,1-b]thiazole monohydrobromide], the results for the Ki in experiment [1], in experiment [2] and in experiment [3] were 0.0407 µM, 0.0087 µM and 0.013 µM, respectively.
Regarding `COc1ccc2scc(C3=CSC4=NCCN34)c2c1` [Example 6, 3-(5-methoxybenzo[b]thiophen-3-yl)-5,6-dihydroimidazo[2,1-b]thiazole monohydrobromide], the Ki in experiment [1] worked out at 0.0375 µM; in experiment [2], 0.022 µM; in experiment [3], 0.051 µM.
As to `Fc1ccc2scc(C3=CSC4=NCCN34)c2c1` [Example 7, 3-(5-fluorobenzo[b]thiophen-3-yl)-5,6-dihydroimidazo[2,1-b]thiazole monohydrobromide], the inhibition at 1 µM in experiment [1] (single concentration 10^-6 M, [3H]8-OH-DPAT, * mean of two determinations, read-out: 5-HT1A % displacement at 10^-6 M) turned out to be 66%. Moreover, the inhibition constant Ki in experiment [2] is 0.036 µM; in experiment [3] it was 0.0054 µM.
As for `N#Cc1ccc2scc(C3=CSC4=NCCN34)c2c1` [Example 8, 3-(5,6-dihydroimidazo[2,1-b]thiazol-3-yl)benzo[b]thiophen-5-carbonitrile monohydrobromide], the inhibitory constant (Ki) was 0.467 µM in experiment [1] and 0.53 µM in experiment [2].

The Ki is the equilibrium dissociation constant of an inhibitor or competing ligand from its target.
